From patent US5468774A, “Tetronic, thiotetronic and tetramic acid derivatives as phospholipase A.sub ” (American Home Products Corporation, priority 1995, dated 1995)

Assays:
[1] = target: 5-lipoxygenase; test: Resident murine peritoneal macrophage assay, LTC4 (5-lipoxygenase); type: cell-based, murine (female Swiss Webster mice); details: for inhibition at 0.5 µM: Peritoneal macrophage
Method: (§1) The ability of the compounds of the invention to act as inhibitors of the enzymes 5-lipoxygenase and cyclooxygenase is measured in the resident murine peritoneal macrophage assay.
(§2) Resident peritoneal macrophages are collected from female Swiss Webster mice (49 days old, 20-25 gms, Buckshire) by lavaging with 7-8 ml Hanks Balanced Salt Solution (HBSS) without Ca^++ and Mg^++ (GIBCO). The lavage fluid from several mice is pooled and centrifuged at 4° C. for 10 minutes at 400 xg.
(§3) Residual serum and cellular debris are removed from the monolayers by washing 3x with 2 ml HBSS containing Ca^++ and Mg^++. Macrophages are preincubated for 5 minutes with 1 ml serum-free M199 containing 10 μl dimethyl sulfoxide (DMSO) vehicle or test compound prior to cell activation with zymosan ([…]) or arachidonic acid (AA) (2 μM). After 2 hours, the supernatants are removed and either assayed for LTC4 and PGE2 by radioimmunoassay (RIA) directly or stored at -20° C. In all cases, results are expressed as ng metabolite/4×10^6 cells.
(§4) Raw data (dpm) may be stored directly onto an "Autostart" tape using the HP85 in room C-096. The raw data are converted to ng metabolite/4-10^6cells using the standard curve by a "RIANAL" program (HP85) or a "NONLIN" program (HP9816). Results are then expressed as percent inhibition of zymosan induced, leukotriene or prostaglandin synthesis (control) using the equation: [formula]

[2] = test system: cyclooxygenase; test: Resident murine peritoneal macrophage assay, PGE2 (cyclooxygenase); type: cell-based, murine (female Swiss Webster mice); details: mouse peritoneal macrophages; for inhibition at 0.5 µM: Peritoneal macrophage
Method: as §1
as §2, with “xg. The cell pellet is resuspended in Medium 199 (GIBCO) with HEPES buffer containing 100 μg/ml gentamicin. Two ml of the cell suspension (4×10^6 cells) are then plated on 35 mm culture dishes (Nunc).” for “xg.”
A macrophage monolayer is established after a 1-1.5 hour incubation of the cells at 37° C. in an atmosphere of 95% O2 and 5% CO2. The monolayers are washed 2x with 2 ml HBDSS, containing Ca^++ and Mg^++ after which 2 ml Medium 199 supplemented with 10% freshly thawed heat-inactivated fetal bovine serum and 100 μg/ml gentamicin is added for an overnight incubation.
as §3, §4

[3] = target: T1, Human Synovial PLA2 (Homo sapiens, UniProt P14555); test: In vitro isolated phospholipase A2 assay, arachidonic acid release from 3H-AA E. coli substrate, human synovial fluid PLA2; type: biochemical; details: read-out: % Inhibition at 10 μM HSF (human synovial fluid)
T1 construct: Purified human synovial fluid; from tissue; host or cells: human synovial fluid (purified)
T1 sequence (P14555 21-144): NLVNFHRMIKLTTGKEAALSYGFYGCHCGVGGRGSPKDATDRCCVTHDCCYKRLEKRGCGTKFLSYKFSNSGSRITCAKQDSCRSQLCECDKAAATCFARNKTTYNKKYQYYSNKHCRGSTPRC
Method: (§5) The compounds of the invention are tested in an in vitro isolated phospholipase A2 assay to determine the ability of the test compounds to inhibit the release of arachidonic acid from an arachidonic acid-containing substrate by the action of phospholipase A2 enzyme from human and non-human sources.
(§6) Into a 15 mL polypropylene tube are added the following: […]
(§7) ^3 H-AA E. coli substrate^1
(§8) Tris-HCl (0.5M) pH 7.5^3
(§9) PLA2 25 Volume yielding 12%
(§10) *pre-incubate at room temperature 30 min prior to substrate addition.
(§11) ^1 Prepared by adding 2 mL deionized and distilled water to 2 mL
(§12) ^5 Stock 10 mM prepared in dimethyl sulfoxide. Make 1:2 dilution with
(§13) ^6 Two human PLA2 enzymes are used:
b) Purified human synovial fluid.
(§14) Incubate the 100μL reaction mixture for 10 minutes at 37° C. in a shaking water bath. The reaction is terminated by the addition of 2 mL tetrahydrofuran, followed by vortexing. NH2 columns ([…]--Analytichem International) are conditioned with 0.5 mL tetrahydrofuran followed by 0.5 mL tetrahydrofuran/water (2 mL:0.1 mL, v/v).
(§15) The sample is loaded onto the columns and slowly drawn through them. The hydrolyzed arachidonic acid retained in the columns is eluted therefrom with 1 mL tetrahydrofuran/glacial acetic acid (2%). The arachidonic acid is transferred to scintillation vials and quantitated by β-counting analysis. […]

[4] = target: T2, Human Platelet PLA2 (Homo sapiens, UniProt P14555); test: In vitro isolated phospholipase A2 assay, arachidonic acid release from 3H-AA E. coli substrate, human platelet PLA2; type: biochemical; details: read-out: % Inhibition at 10 μM HP (human platelet)
T2 construct: Semipurified human platelet acid extract PLA2; from tissue; host or cells: human platelets (semipurified acid extract)
T2 sequence (P14555 21-144): T1 sequence (P14555 21-144)
Method: as §5, §6, §7, §8, §9, §10, §11, §12, §13
a) Semipurified human platelet acid extract PLA2 (in 10 Mm sodium
as §14, §15

[5] = test system: Platelet-Activating Factor Biosynthesis in Human Polymorphonuclear Neutrophils; test: Inhibition of platelet-activating factor (PAF) biosynthesis in human polymorphonuclear neutrophils (in vitro phospholipase A2 assay); type: cell-based; details: Polymorphonuclear neutrophil, A23187 stimulated human PMN
Method: (§16) The compounds of the invention are tested in an in vitro phospholipase A2 assay to determine the ability of the compounds to inhibit the biosynthesis of platelet-activating factor and LTB4 in purified human neutrophils.
(§17) A leukocyte enriched blood sample obtained from a healthy donor is procured by leukophoresis using a Haemonetics model 30+ blood processor (Biological Specialties, Inc., Lansdale, Pa.). The top "platelet-rich" layer is removed after a low speed spin (35 xg, 15 min, 25° C.) of the sample. The remaining cell suspension is centrifuged (400 xg, 10 min, 25° C.) to sediment the remaining cells. The supernatant is discarded and the cell pellet resuspended in 120 ml HBSS (without Ca^++ /Mg^++). The cell suspension is subjected to ficoll-hypaque sedimentation (Histopaque 1077, 400 xg, 30 min, 25° C). Contaminating erythrocytes are lysed by hypotonic shock (1 min). The cells are then washed once with 40 ml of HBSS and resuspended with HBSS (without Ca^++ /Mg^++) to a concentration of 2.5×10^7 cells/ml for further use. Greater than 95% purity is obtained, as assessed by microscopic examination.
(§18) One ml of human PMN (2.5×10^7 cells/ml) is incubated with vehicle or drugs (10 μl) for 10 minutes at 30° C. After preincubation, an equal volume of HBSS (1 ml) containing 2.4 mM CaCl2, 6 μM calcium ionophore A23187 and 50 μCi[^3 H]-acetate is then incubated at 30° C. for 15 minutes. An aliquot (100 μl) of the reaction mixture is taken out and mixed with 900 μl of 15% ethanol. LTB4 is extracted by using solid phase extraction on reverse phase C18 columns to remove excess [^3 H]-acetate and PAD. […] The quantity of LTB4 in the sample is obtained from RIA determination. […] [^3 H]-PAF is resolved from other phospholipids by TLC on RPC18 plates with a solvent system of chloroform:methanol:water (2:3:1, v/v/v) and is quantitated using a Berthold automated TLC linear analyzer.
(§19) Data presented are the mean +/- s.d. of the values relative to control A23187 stimulated cells for each experiment assayed in triplicate. Percent inhibition when used is calculated as: […]

[6] = test system: LTB4 biosynthesis in human neutrophils; test: Inhibition of LTB4 biosynthesis in purified human neutrophils (in vitro phospholipase A2 assay); type: cell-based; details: Neutrophil, A23187 stimulated human PMN
Method: as §16, §17, §18, §19

[7] = 0.5 μM, mouse peritoneal macrophages

`CCCCCC#CCC#CCC#CCC#CCCCC(=O)O` [ETYA, reference compound] showed an IC50 ([1]; reference compounds) of 440 nM.

`O=C(CCC1CCCCCCCCCCC1)C1=C(O)COC1=O` [Example 1, 3-(3-Cyclododecyl-1-oxopropyl)-4-hydroxy-2(5H)-furanone] gave an inhibition at 0.5 µM [2] of 46.7%, an inhibition at 10 µM [3] of 41.9% and an inhibition at 0.5 µM [1, 7] of 29%. It also gave an inhibition at 10 µM [4] of -3.7%, an inhibition at 10 µM [5] of 84.3% and an inhibition at 10 µM [6] of 95.1%.

For `O=C(COCC1CCCCCCCCCCC1)C1=C(O)CSC1=O` [Example 16], the “PGE2 % Inhibition” value ([2]; 0.5 μM) was 77.0% and the “LTC4 % Inhibition” value [1, 7] was 33.0%.

`O=C(CCC1CCCCCCCCCCC1)C1=C(O)CSC1=O` [Example 2, 3-(3-cyclododecyl-1-oxopropyl)-4-hydroxy-2(5H)-thiophenone] was tested, and the inhibition at 0.5 µM [2] was 97.1%, the inhibition at 10 µM [3] was 53% and the inhibition at 0.5 µM [1, 7] was 76.1%. For the same compound, the inhibition at 10 µM [4] was 18.2%, the inhibition at 10 µM [5] was 79.2% and the inhibition at 10 µM [6] was 69.6%.

Compound `CN1CC(O)=C(C(=O)CCC2CCCCCCCCCCC2)C1=O` [Example 3, 3-(3-cyclododecyl-1-oxopropyl)-1.5-dihydro-4-hydroxy-1-methyl-1H-pyrrolin-2-one] has an inhibition at 0.5 µM [2] of 75.9%, an inhibition at 0.5 µM [1, 7] of 66.2% and an inhibition at 10 µM [5] of 64.4%. It also gave an inhibition at 10 µM [6] of 90.4%.

In the case of `O=C(NCCC1CCCCCCCCCCC1)C1=C(O)COC1=O` [Example 15, 4-Hydroxy-2-oxo-2,5-dihydro-furan-3-carboxylic acid-2-cyclododecyl-ethylamide], the inhibition at 0.5 µM [2] is reported as 52% and the inhibition at 0.5 µM [1, 7] is reported as 25.9%.
